Source: the NIST ThermoML archive (doi:10.1021/je500886a)
± gives the expanded uncertainty stated by the source.

Assay: mn = molality of the nth substance listed, in mol/kg
Conditions: 101 kPa, Liquid

O=C[C@@H](O)[C@@H](O)[C@H](O)[C@H](O)CO [D-mannose] + O
Conditions | mass density, 288.15 K [kg/m3] | mass density, 298.15 K [kg/m3] | mass density, 308.15 K [kg/m3] | mass density, 318.15 K [kg/m3] | viscosity, 288.15 K [mPa·s] | viscosity, 298.15 K [mPa·s] | viscosity, 308.15 K [mPa·s] | viscosity, 318.15 K [mPa·s]
m1 = 0.0501 | – | – | – | – | 1.168 ± 0.022 | 0.912 ± 0.017 | 0.735 ± 0.014 | 0.608 ± 0.012
m1 = 0.05278 | 1002.76 ± 0.23 | 1000.64 ± 0.23 | 997.63 ± 0.23 | 993.78 ± 0.24 | – | – | – | –
m1 = 0.07151 | 1004.03 ± 0.24 | 1001.9 ± 0.23 | 998.87 ± 0.23 | 995.02 ± 0.24 | 1.181 ± 0.022 | 0.92 ± 0.018 | 0.742 ± 0.015 | 0.613 ± 0.012
m1 = 0.09003 | 1005.28 ± 0.24 | 1003.14 ± 0.24 | 1000.09 ± 0.23 | 996.23 ± 0.23 | – | – | – | –
m1 = 0.09353 | – | – | – | – | 1.191 ± 0.022 | 0.929 ± 0.018 | 0.749 ± 0.015 | –
m1 = 0.1065 | 1006.39 ± 0.24 | 1004.23 ± 0.24 | 1001.17 ± 0.23 | 997.3 ± 0.23 | – | – | – | –
m1 = 0.1123 | – | – | – | – | 1.201 ± 0.022 | 0.936 ± 0.018 | 0.756 ± 0.015 | 0.624 ± 0.013
m1 = 0.1277 | – | 1005.63 ± 0.24 | 1002.56 ± 0.23 | 998.67 ± 0.23 | – | – | – | –
m1 = 0.1318 | – | – | – | – | 1.214 ± 0.022 | 0.945 ± 0.018 | 0.761 ± 0.015 | 0.628 ± 0.013
m1 = 0.1488 | – | – | 1003.92 ± 0.24 | 1000.02 ± 0.23 | – | – | – | –
m1 = 0.1515 | – | – | – | – | 1.225 ± 0.023 | 0.952 ± 0.018 | 0.766 ± 0.015 | 0.634 ± 0.013

OC[C@@H](O)[C@@H](O)[C@H](O)[C@@H](O)CO [D-sorbitol] + O
Conditions | mass density, 288.15 K [kg/m3] | mass density, 298.15 K [kg/m3] | mass density, 308.15 K [kg/m3] | mass density, 318.15 K [kg/m3] | viscosity, 288.15 K [mPa·s] | viscosity, 298.15 K [mPa·s] | viscosity, 308.15 K [mPa·s] | viscosity, 318.15 K [mPa·s]
m1 = 0.0479 | – | – | – | – | 1.169 ± 0.022 | 0.914 ± 0.018 | 0.736 ± 0.015 | 0.609 ± 0.013
m1 = 0.05068 | 1002.38 ± 0.35 | 1000.23 ± 0.35 | 997.2 ± 0.35 | 993.33 ± 0.36 | – | – | – | –
m1 = 0.06467 | – | – | – | – | 1.183 ± 0.022 | 0.921 ± 0.018 | 0.742 ± 0.015 | 0.614 ± 0.013
m1 = 0.07063 | 1003.63 ± 0.36 | 1001.46 ± 0.35 | 998.41 ± 0.35 | 994.53 ± 0.36 | – | – | – | –
m1 = 0.08656 | – | – | – | – | 1.197 ± 0.023 | 0.932 ± 0.018 | 0.75 ± 0.015 | 0.62 ± 0.013
m1 = 0.09024 | 1004.83 ± 0.36 | 1002.65 ± 0.35 | 999.59 ± 0.35 | 995.7 ± 0.35 | – | – | – | –
m1 = 0.1057 | 1005.77 ± 0.36 | 1003.58 ± 0.36 | 1000.51 ± 0.35 | 996.61 ± 0.35 | – | – | – | –
m1 = 0.106 | – | – | – | – | 1.21 ± 0.023 | 0.942 ± 0.018 | 0.756 ± 0.015 | 0.624 ± 0.013
m1 = 0.1249 | – | – | – | – | 1.226 ± 0.023 | 0.951 ± 0.018 | 0.765 ± 0.015 | 0.631 ± 0.013
m1 = 0.13 | 1007.24 ± 0.36 | 1005.03 ± 0.36 | 1001.95 ± 0.35 | 998.04 ± 0.35 | – | – | – | –
m1 = 0.1451 | – | – | – | – | 1.239 ± 0.023 | 0.959 ± 0.019 | 0.772 ± 0.015 | 0.635 ± 0.013
m1 = 0.1465 | 1008.23 ± 0.37 | 1006.01 ± 0.36 | 1002.93 ± 0.36 | 999 ± 0.35 | – | – | – | –
